# Laboratory results published in US11174264B2, “TYK2 inhibitors and uses thereof” (Nimbus Lakshmi, Inc., priority 2019, dated 2021).
# What was measured:
# [1] = target: JAK1 kinase domain (Homo sapiens (Human), UniProt P23458); assay: JAK1 Radioactive Kinase Assay; type: biochemical; conditions: 10 μM compound; for inhibition at 10 µM: read-out: JAK1_IC50_RB (% INH_@_10 uM) at 10.0 uM [% INH]
# From the text: (§1) Similar assays were run to measure the percent inhibition at the JAK1 and JAK3 kinase domains.
# [2] = target: JAK3 kinase domain (Homo sapiens (Human), UniProt P52333); assay: JAK3 Radioactive Kinase Assay; type: biochemical; conditions: 10 μM compound; for inhibition at 10 µM: read-out: JAK3_IC50_RB (% INH_@_10 uM) at 10.0 uM [% INH]
# From the text: as §1
# [3] = system: IL-12 induced STAT4 phophorylation mediated by Tyk2/JAK2 (heterodimeric complex); assay: IL-12 Induced pSTAT4 in Human PBMC; type: cell-based; conditions: for IC50: 1.7 ng/mL IL-12, read-out: PBMC_IL-12-pSTAT4 (IC50); for inhibition at 0.05 µM: Homo sapiens, PBMC, 1.7 ng/mL IL-12, read-out: PBMC_IL-12-pSTAT4 (% Inhibition_Average_@0.05 uM) [%]
# Description: Human PBMC are isolated from buffy coat and are stored frozen for assays as needed. […] 15 μl of compound or DMSO is added to the well at the desired concentrations and incubated at 1 hr at 37° C. 15 μl of stimulus (final concentration of 1.7 ng/mL IL-12) is added for 30 minutes prior to pSTAT4 and total STAT4 analysis using cell lysates prepared and analyzed by MSD reagents as per manufacturer protocol. The final DMSO concentration of compound in the assay is 0.1%.
# The IL-12 Induced pSTAT4 assay evaluates the inhibition of IL-12 induced STAT4 phophorylation mediated by Tyk2/JAK2 (heterodimeric complex).
# [4] = target: human TYK2 (JH2domain-pseudokinase) (Homo sapiens (Human), UniProt P29597); assay: TYK2 JH2 Domain Binding Assay (KINOMEscan); conditions: read-out: hTYK2_JH2_Binding (Kd)
# Description: Binding constants for compounds of the present invention against the JH2 domain were determined by the following protocol for a KINOMEscan® assay (DiscoveRx). A fusion protein of a partial length construct of human TYK2 (JH2domain-pseudokinase) (amino acids G556 to D888 based on reference sequence NP_003322.3) and the DNA binding domain of NFkB was expressed in transiently transfected HEK293 cells. From these HEK 293 cells, extracts were prepared in M-PER extraction buffer (Pierce) in the presence of Protease Inhibitor Cocktail Complete (Roche) and Phosphatase Inhibitor Cocktail Set II (Merck) per manufacturers' instructions. The TYK2 (JH2domain-pseudokinase) fusion protein was labeled with a chimeric double-stranded DNA tag containing the NFkB binding site (5′-[…]-3′) fused to an amplicon for qPCR readout, which was added directly to the expression extract (the final concentration of DNA-tag in the binding reaction is 0.1 nM).
# The liganded beads were blocked with excess biotin and washed with blocking buffer (SeaBlock (Pierce), 1% BSA, 0.05% Tween 20, 1 mM DTT) to remove unbound ligand and to reduce nonspecific binding.
# Extracts were used directly in binding assays without any enzyme purification steps at a ≥10,000-fold overall stock dilution (final DNA-tagged enzyme concentration <0.1 nM). Extracts were loaded with DNA-tag and diluted into the binding reaction in a two step process. First extracts were diluted 1:100 in 1× binding buffer (PBS/0.05% Tween 20/10 mM DTT/0.1% BSA/2 μg/ml sonicated salmon sperm DNA) containing 10 nM DNA-tag. This dilution was allowed to equilibrate at room temperature for 15 minutes and then subsequently diluted 1:100 in 1× binding buffer. […] Kds were determined using an 11-point 3-fold compound dilution series with three DMSO control points. […] The compounds were then diluted directly into the assays such that the final concentration of DMSO was 0.9%. All reactions performed in polypropylene 384-well plates. Each was a final volume of 0.02 mL. Assays were incubated with shaking for 1 hour at room temperature. Then the beads were pelleted and washed with wash buffer (1×PBS, 0.05% Tween 20) to remove displaced kinase and test compound. […] The qPCR protocol consisted of a 10 minute hot start at 95° C., followed by 35 cycles of 95° C. for 15 seconds, 60° C. for 1 minute.
# The compounds were then diluted directly into the assays such that the final concentration of DMSO was 0.9%. […] Kd measurements were performed in duplicate.
# Binding constants (Kd values) were calculated with a standard dose-response curve using the Hill equation: […]
# The Hill Slope was set to −1.
# [5] = target: JAK2 kinase domain (JH1) (Homo sapiens (Human), UniProt O60674); assay: JAK2 Radioactive Kinase Assay; type: biochemical; conditions: 10 μM compound, ATP at 10 μM; for inhibition at 10 µM: read-out: JAK2_IC50_RB (% INH_@_10 uM) at 10.0 uM [% INH]
# Description: (§2) The Tyk2 and JAK2 radioactive kinase assay measures the percent inhibition at the Tyk2 kinase domain (JH1) and the percent inhibition at the JAK2 kinase domain (JH1). Results of the assay are expressed as percent inhibition at 10 μM.
# [6] = target: Tyk2 kinase domain (JH1) (Homo sapiens (Human), UniProt P29597); assay: Tyk2 Radioactive Kinase Assay; type: biochemical; conditions: 10 μM compound, ATP at 10 μM; read-out: TYK2_IC50_RB (% INH_@_10 uM) at 10.0 uM [% INH]
# Description: as §2
# JAK1 kinase domain, sequence (P23458 875-1153): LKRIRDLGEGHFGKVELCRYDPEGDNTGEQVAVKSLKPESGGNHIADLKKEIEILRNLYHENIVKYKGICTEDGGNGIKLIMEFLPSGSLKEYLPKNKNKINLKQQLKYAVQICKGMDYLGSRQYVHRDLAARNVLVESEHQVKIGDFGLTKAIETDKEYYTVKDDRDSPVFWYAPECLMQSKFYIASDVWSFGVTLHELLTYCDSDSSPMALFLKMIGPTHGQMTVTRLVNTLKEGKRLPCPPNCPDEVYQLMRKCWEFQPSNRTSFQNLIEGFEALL
# JAK3 kinase domain, sequence (P52333 822-1111): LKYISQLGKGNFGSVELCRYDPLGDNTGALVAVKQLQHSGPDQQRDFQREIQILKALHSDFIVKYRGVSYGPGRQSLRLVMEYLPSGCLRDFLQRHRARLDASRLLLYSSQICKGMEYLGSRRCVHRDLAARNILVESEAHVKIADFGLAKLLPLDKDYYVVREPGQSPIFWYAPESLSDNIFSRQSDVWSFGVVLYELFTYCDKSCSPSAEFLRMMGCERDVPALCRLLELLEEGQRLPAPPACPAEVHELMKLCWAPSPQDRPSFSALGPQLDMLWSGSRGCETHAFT
# JAK2 kinase domain (JH1), sequence (O60674 849-1124): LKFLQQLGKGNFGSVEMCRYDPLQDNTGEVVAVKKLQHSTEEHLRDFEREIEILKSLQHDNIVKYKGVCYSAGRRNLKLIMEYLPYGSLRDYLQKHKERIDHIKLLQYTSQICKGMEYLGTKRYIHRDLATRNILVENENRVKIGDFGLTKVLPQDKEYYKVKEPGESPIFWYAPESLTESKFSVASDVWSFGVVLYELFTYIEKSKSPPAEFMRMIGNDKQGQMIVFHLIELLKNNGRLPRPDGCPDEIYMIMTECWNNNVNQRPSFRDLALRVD
# human TYK2 (JH2domain-pseudokinase), sequence (P29597 556-888): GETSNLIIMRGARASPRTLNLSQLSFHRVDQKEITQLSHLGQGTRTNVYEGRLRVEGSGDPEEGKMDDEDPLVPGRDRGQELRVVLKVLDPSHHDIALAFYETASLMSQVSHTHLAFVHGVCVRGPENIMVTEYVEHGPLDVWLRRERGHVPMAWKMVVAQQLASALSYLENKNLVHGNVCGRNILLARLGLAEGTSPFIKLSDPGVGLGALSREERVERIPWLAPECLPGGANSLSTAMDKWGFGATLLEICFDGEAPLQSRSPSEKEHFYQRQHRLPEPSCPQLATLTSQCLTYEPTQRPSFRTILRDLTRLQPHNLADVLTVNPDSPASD
# Tyk2 kinase domain (JH1), sequence (P29597 897-1176): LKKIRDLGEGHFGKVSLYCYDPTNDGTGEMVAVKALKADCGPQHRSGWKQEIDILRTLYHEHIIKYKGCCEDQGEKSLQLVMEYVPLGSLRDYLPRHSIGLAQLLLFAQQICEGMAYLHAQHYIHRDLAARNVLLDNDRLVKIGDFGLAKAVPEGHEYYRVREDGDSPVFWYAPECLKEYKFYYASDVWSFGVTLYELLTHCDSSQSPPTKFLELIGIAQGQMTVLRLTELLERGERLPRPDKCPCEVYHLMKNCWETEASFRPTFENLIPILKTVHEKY
IC50 [3] [nM],Kd [4] [nM],Structure (SMILES),inhibition at 0.05 µM ([3]; 0.05 μM compound) [%],other results
< 100,< 0.2,"CNc1cc(-c2cn(C(C)C)c3ncccc23)nn2c(C(=O)N[C@H]3CC[C@H]3O)cnc12 (racemic) [Compound I-15, N-(2-hydroxycyclobutyl)-6-(1-isopropyl-1H-pyrrolo[2,3-b]pyridin-3-yl)-8-(methylamino)imidazo[1,2-b]pyridazine-3-carboxamide]",–,"JAK1_IC50_RB (% INH_@_10 uM) at 10.0 uM [% INH] [1]: A (had a percent inhibition at 10 μM lower than 50); JAK3_IC50_RB (% INH_@_10 uM) at 10.0 uM [% INH] [2]: A (had a percent inhibition at 10 μM lower than 50); PBMC_IL-12-pSTAT4 (% Inhibition_Average_@0.05 uM) [%] ([3]; 0.05 μM compound, 1.7 ng/mL IL-12): ** (had a percent inhibition at 0.05 μM between 50 and 70); JAK2_IC50_RB (% INH_@_10 uM) at 10.0 uM [% INH] [5]: A (had a percent inhibition at 10 μM lower than 50)"
< 100,< 0.2,"CNc1cc(Nc2cccn([C@H]3CC[C@H](OC)CC3)c2=O)nn2c(C(=O)N[C@H]3CC[C@@H]3OC)cnc12 (racemic) [Compound I-21, N-(2-methoxycyclobutyl)-6-((1-((1r,4S)-4-methoxycyclohexyl)-2-oxo-1,2-dihydropyridin-3-yl)amino)-8-(methylamino)imidazo[1,2-b]pyridazine-3-carboxamide]",> 90,–
< 100,< 0.2,"CNc1cc(Nc2cccn([C@H]3[C@@H]4COC[C@@H]43)c2=O)nn2c(C(=O)N[C@H]3CC[C@@H]3OC)cnc12 (racemic) [Compound I-22, 6-((1-((1R,5S,6r)-3-oxabicyclo[3.1.0]hexan-6-yl)-2-oxo-1,2-dihydropyridin-3-yl)amino)-N-(2-methoxycyclobutyl)-8-(methylamino)imidazo[1,2-b]pyridazine-3-carboxamide]",70 to 90,–
< 100,< 0.2,"CNc1cc(Nc2cccn([C@H]3C[C@H](OC)C3)c2=O)nn2c(C(=O)N[C@H]3CC[C@@H]3OC)cnc12 (racemic) [Compound I-23, N-((1S,2S)-2-methoxycyclobutyl)-6-((1-((1r,3S)-3-methoxycyclobutyl)-2-oxo-1,2-dihydropyridin-3-yl)amino)-8-(methylamino)imidazo[1,2-b]pyridazine-3-carboxamide]",70 to 90,–
< 100,< 0.2,"CNc1cc(Nc2cccn(-c3ncccc3F)c2=O)nn2c(C(=O)N[C@H]3CC[C@@H]3OC)cnc12 (stereo in doubt) [Compound I-17, 6-((3′-fluoro-2-oxo-2H-[1,2′-bipyridin]-3-yl)amino)-N-(2-methoxycyclobutyl)-8-(methylamino)imidazo[1,2-b]pyridazine-3-carboxamide]",50 to 70,–
< 100,< 0.2,"CNc1cc(Nc2cccn(-c3ccccn3)c2=O)nn2c(C(=O)N[C@H]3CC[C@@H]3OC)cnc12 (stereo in doubt) [Compound I-18, N-(2-methoxycyclobutyl)-8-(methylamino)-6-((2-oxo-2H-[1,2′-bipyridin]-3-yl)amino)imidazo[1,2-b]pyridazine-3-carboxamide]",70 to 90,–
< 100,< 0.2,"CNc1cc(Nc2cccn(-c3ccc(C)nc3)c2=O)nn2c(C(=O)N[C@H]3CC[C@@H]3OC)cnc12 (stereo in doubt) [Compound I-19, N-(2-methoxycyclobutyl)-6-((6′-methyl-2-oxo-2H-[1,3′-bipyridin]-3-yl)amino)-8-(methylamino)imidazo[1,2-b]pyridazine-3-carboxamide]",50 to 70,–
< 100,< 0.2,"CNc1cc(Nc2cccn(C3CCOCC3)c2=O)nn2c(C(=O)N[C@H]3CC[C@@H]3OC)cnc12 (stereo in doubt) [Compound I-20, N-(2-methoxycyclobutyl)-8-(methylamino)-6-((2-oxo-1-(tetrahydro-2H-pyran-4-yl)-1,2-dihydropyridin-3-yl)amino)imidazo[1,2-b]pyridazine-3-carboxamide]",70 to 90,–
–,< 0.2,"CNc1cc(-c2cn(C(C)C)c3ncccc23)nn2c(C(=O)N[C@@H]3CC[C@@H]3O)cnc12 [Compound I-7, N-((1R,2S)-2-hydroxycyclobutyl)-6-(1-isopropyl-1H-pyrrolo[2,3-b]pyridin-3-yl)-8-(methylamino)imidazo[1,2-b]pyridazine-3-carboxamide]",–,inhibition at 10 µM [6]: < 50%; inhibition at 10 µM [1]: < 50%; inhibition at 10 µM [2]: < 50%; inhibition at 10 µM [5]: < 50%
–,< 0.2,"CNc1cc(-c2cn(C3CCOCC3)c3ncccc23)nn2c(C(=O)N[C@@H]3CC[C@@H]3O)cnc12 [Compound I-8, N-((1R,2S)-2-hydroxycyclobutyl)-8-(methylamino)-6-(1-(tetrahydro-2H-pyran-4-yl)-1H-pyrrolo[2,3-b]pyridin-3-yl)imidazo[1,2-b]pyridazine-3-carboxamide]",–,–
–,0.2 to 1,"CNc1cc(-c2cn(CCN3CCOCC3)c3ncccc23)nn2c(C(=O)N[C@@H]3CC[C@@H]3O)cnc12 [Compound I-9, N-((1R,2S)-2-hydroxycyclobutyl)-8-(methylamino)-6-(1-(2-morpholinoethyl)-1H-pyrrol[2,3-b]pyridin-3-yl)imidazo[1,2-b]pyridazine-3-carboxamide]",–,inhibition at 10 µM [1]: < 50%; inhibition at 10 µM [2]: < 50%; inhibition at 10 µM [5]: < 50%
–,< 0.2,"CNc1cc(-c2cn(C3CCOCC3)c3ncccc23)nn2c(C(=O)N[C@H]3CC[C@H]3O)cnc12 [Compound I-11, N-((1S,2R)-2-hydroxycyclobutyl)-8-(methylamino)-6-(1-(tetrahydro-2H-pyran-4-yl)-1H-pyrrolo[2,3-b]pyridin-3-yl)imidazo[1,2-b]pyridazine-3-carboxamide]",70 to 90,–
–,0.2 to 1,"CNc1cc(-c2cn(C(C)C)c3ncccc23)nn2c(C(=O)N[C@@H]3COC[C@@H]3O)cnc12 [Compound I-13, N-((3R,4R)-4-hydroxytetrahydrofuran-3-yl)-6-(1-isopropyl-1H-pyrrolo[2,3-b]pyridin-3-yl)-8-(methylamino)imidazo[1,2-b]pyridazine-3-carboxamide]",–,–
–,< 0.2,"CNc1cc(-c2cn(C(C)C)c3ncccc23)nn2c(C(=O)N[C@H]3COC[C@H]3O)cnc12 [Compound I-14, N-((3S,4S)-4-hydroxytetrahydrofuran-3-yl)-6-(1-isopropyl-1H-pyrrolo[2,3-b]pyridin-3-yl)-8-(methylamino)imidazo[1,2-b]pyridazine-3-carboxamide]",70 to 90,–
